# Patent publication US9371353B2, “Oligonucleotide with protected base” (Ajinomoto Co., Inc., priority 2012, dated 2016)
# Assay: Solubility test of nucleoside with protected 3′-hydroxyl group
# Assay type: physicochemical
# Experimental: The solubility (=solute/(solvent+solute)×100) (mass %) at 20° C., shown in the following Table 2, of the compound representing the present invention, thymidine wherein the 5′-hydroxyl group is protected by dimethoxytrityl group, and the 3′-hydroxyl group is protected by the branched chain-containing aromatic protecting group (Example 2), and thymidine wherein the 5′-hydroxyl group is protected by dimethoxytrityl group, and the 3′-hydroxyl group is protected by the corresponding group containing the straight chain structure (Comparative Example 2) as a comparison target thereof was measured.
# [Solubility Measurement Method]
# • 1) A solute (100 parts by mass) was added to a solvent (100 parts by mass) to saturation at 20° C. • 2) When the solute remained by visual observation, the supernatant was quantitatively analyzed under the following HPLC conditions, and the concentration was determined and taken as the solubility (=solute/(solvent+solute)×100)(mass %). • 3) When the solute was absent by visual observation, the solubility was >50 mass %. • [HPLC Analysis Conditions] • use instrument: Hitachi high performance liquid chromatography LaChrom Elite L-2000 series • column: YMC-PACK 5 μm 150×4.6 mm • column temperature: 40° C. • eluent: THF/CH3CN/H2O • flow rate: 1.0 ml/min
# [1] = heptane/toluene/acetonitrile = 1/1/1, 20° C.
Structure (SMILES),"solubility (=solute/(solvent+solute)×100) (heptane, 20° C.) [% by mass]","solubility (=solute/(solvent+solute)×100) (heptane/toluene = 1/1, 20° C.) [% by mass]",solubility (=solute/(solvent+solute)×100) [1] [% by mass]
"COc1ccc(C(OCC2OC(n3cc(C)c(=O)[nH]c3=O)C[C@H]2OC(=O)CCC(=O)NCc2cc(OCCC(C)CCCC(C)CCCC(C)CCCC(C)C)c(OCCC(C)CCCC(C)CCCC(C)CCCC(C)C)c(OCCC(C)CCCC(C)CCCC(C)CCCC(C)C)c2)(c2ccccc2)c2ccc(OC)cc2)cc1 (stereo partly drawn) [Example 2, 5′-O-(4,4′-dimethoxytrityl)-2′-deoxythymidin-3′-yl-N-[3,4,5-tris(3,7,11,15-tetramethyl-1-hexadecanyloxy)benzyl]succinamate]",>50,>50,>50
"CCCCCCCCCCCCCCCCCCOc1cc(CNC(=O)CCC(=O)OC2CC(n3cc(C)c(=O)[nH]c3=O)OC2COC(c2ccccc2)(c2ccc(OC)cc2)c2ccc(OC)cc2)cc(OCCCCCCCCCCCCCCCCCC)c1OCCCCCCCCCCCCCCCCCC (stereo not drawn) [Comparative Example 2, 5′-O-(4,4′-dimethoxytrityl)-2′-deoxythymidin-3′-yl-N-(3,4,5-tris(octadecyloxy)benzyl)succinamate]",0,22.3,13.7
